Structures are written as SMILES. Where only a bound is given, the exact number is not on record here.

Consider 11 compounds from US20090118285A1, “USE OF KCNQ-OPENERS FOR TREATING OR REDUCING THE SYMPTOMS OF SCHIZOPHRENIA” (H. Lundbeck A/S, priority 2006, published 2009).

The test system of data set [1] is amphetamine-induced hyperactivity in the rat. Nature of the data set: Amphetamine challenge: d-amphetamine induced hyperactivity in rats. Type of data set: in vivo. The note with it: test substance s.c. 30 min before d-amphetamine sulphate 0.5 mg/kg, motility 2 hours, read-out: Amphetamine antagonism ED50 ± std. dev. The text has this:
D-amphetamine administration to rodents stimulates an increase in locomotor activity via mesolimbic dopamine receptors in the nucleus accumbens. While psychostimulant psychosis may not model all forms of schizophrenia, it may have applicability to paranoid schizophrenia and non-schizophrenic psychotic disorders (Krystal et al. pp. 214-224 in Neurobiology of Mental Illness ISBN 0-19-511265-2). It is believed that inhibition of the amphetamine-induced increase in locomotor activity is a reliable method for the evaluation of compounds with an antipsychotic potential (Ögren et al., European J. Pharmacol. 1984, 102, 459-464). In the following experiment, it was tested if the inhibition of spontaneous DA neurons in the mesolimbic circuit that was assessed above, could be translated into behavioral antipsychotic endpoint.
Subjects. Male Wistar rats (Taconic, Denmark) weighing 170-240 g are used. The animals were housed under a 12-hr light/dark cycle under controlled conditions for regular in-door temperature (21±2° C.) and humidity (55±5%) with food and tap water available ad libitum. Eight rats were used at each dose level and in the parallel control group receiving the vehicle to the test compound plus d-amphetamine and the group receiving vehicle injections only.

Data set [2] has as its system DA levels in the nucleus accumbens. Nature of the data set: Microdialysis: DA levels in the nucleus accumbens of freely moving rats. Type of data set: in vivo, rat. Particulars: 5 mg/kg s.c., freely moving rats. From the text: It is well-known that psychostimulants increase locomotor activity via an increase in extracellular DA levels in the nucleus accumbens, which is the terminal area of the mesolimbic DA projections (Guix et al., 1992, Neurosci. Lett., 138(1), 137-140; Moghaddam et al., 1989, Synapse, 4(2), 156-161). It is also known, that the antagonistic effect of antipsychotics on stimulant-induced hyperlocomotion is related to the effect of antipsychotics to inhibit the stimulated DA levels in the nucleus accumbens (Broderick et al., 2004, Prog. Neuropsychopharmacology and Biol. Psych., 28, 157-171). Thus, the nucleus accumbens is an accepted neuroanatomical site for testing reversal of positive symptoms of psychosis. […] The experiments were conducted such that the data may be associated with the behavioural data obtained above.
Subjects. Male Sprague-Dawley rats (Charles River), initially weighing 275-300 g, were used. The animals were housed under a 12-hr light/dark cycle under controlled conditions for regular in-door temperature (21±2° C.) and humidity (55±5%) with food and tap water available ad libitum.
Surgery. Animals were anaesthetized with hypnorm/dormicum (2 ml/kg s.c.) and intracerebral guide cannulas (CMA/12) were stereotaxically implanted, positioning the dialysis probe tip in the nucleus accumbens (co-ordinates: […] anterior to bregma, —1.2 mm lateral to bregma, 8.0 mm ventral to the dura). Anchor screws and acrylic cement was applied for fixation of the guide cannula. The body temperature of the animals was maintained at 37° C. by means of a rectal probe and a heating plate. The rats were allowed to recover from surgery for 2 days, housed singly in cages.
Experimental procedure. On the day of the experiment, a microdialysis probe (CMA/12, 0.5 mm diameter, 2 mm length) was inserted through the guide cannula of the conscious animal. The probes were connected to a microinjection pump via a dual channel swivel which allowed the animals unrestricted movements. Perfusion of the microdialysis probe with filtered Ringer solution (145 mM NaCl, 3 mM KCl, 1 mM MgCl2, 1.2 mM CaCl2) was maintained for the duration of the experiment at a constant flow rate of 1 μL/min. After 180 min of stabilisation, the experiments were initiated. Dialysates were collected every 20 min. After the experiments the rats were sacrificed by decapitation, their brains removed, frozen and sliced for probe placement verification.
Administration of compounds. […] Thirty min after the first administration dex-amphetamine sulphate (0.5 mg/kg s.c.) was administered.
Analysis of dialysate. The concentration of dopamine (DA) in the dialysates was assessed by means of HPLC with electrochemical detection. The dialysate constitutents were separated by reverse phase liquid chromatography (ODS 150×3 mm, […]). Mobile phase consisted of 90 mM NaH2PO4, 50 mM sodium citrate, 367 mg/l sodium 1-octanesulfonic acid, 50 μM EDTA and 8% acetonitrile (pH 4.0) at a flow rate of 0.5 ml/min. Electrochemical detection of DA was accomplished using a coulometric detector; potential set at E1=−75 mV and E2=300 mV (guard cell at 350 mV) (Coulochem II, ESA). The dialysate levels of DA in the three dialyse samples preceding the administration of compound were averaged and used as baseline level of DA (100%)

For data set [3], the system named is sensitised behavioural response to amphetamine in mice. Briefly: Amphetamine sensitisation: sensitised behavioural response to amphetamine in mice. In kind it is in vivo, mouse. The note with it: amphetamine-pretreated mice, compound s.c. 30 min before D-amphetamine challenge 1.25 mg/kg s.c., 30 min test; for ED50: Mus musculus, read-out: Inhibition of amphetamine sensitised response. ED50 (±S.D.). The method, then: Inhibition of the behavioral response to an acute amphetamine challenge in sensitised animals is proposed as a model for evaluating the antipsychotic or antimanic potential of compounds.
Subjects. Male NMRI mice (Charles River) weighing approx. 35 g are used. The animals were housed 6 mice pr cage in a 12-hr light/dark cycle under controlled conditions for regular in-door temperature (21±2° C.) and humidity (55±5%) with food and tap water available ad libitum. 12 mice are used pr experimental group.
Administration of compounds.

In data set [4] the test system is conditioned avoidance response in rats. Nature of the data set: Conditioned avoidance response in rats. Type of data set: in vivo, rat. Particulars: for % inhibition of avoidance. Relative to baseline.: rats; for Escape failures (effect on motor performance): rat, in vivo. From the text: In the conditioned avoidance response (CAR) model, rats are trained to respond to a stimulus within a fixed time by moving from one place to another in order to avoid a footshock. Antipsychotics selectively suppress the avoidance response within a certain dose-range without suppressing escape behavior elicited by the appearance of the footshock. The CAR model is considered to be a predictive and reliable animal model that is sensitive to compounds with an antipsychotic potential.
Subjects. Male Wistar rats (Taconic, Denmark) weighing 150 g at the beginning of the study are used. The rats are housed ii pairs and maintained on a 12 h light/dark cycle (lights on 06:00). The animals are fed once daily (approx. 6 pellets/rat) in order to keep the rats at 80% of their free-feeding weight. Water is available ad libitum. Temperature (21±1° C.) and relative humidity (55±5%) are automatically controlled.
Experimental procedure. Conditioned avoidance testing is conducted using four automated shuttle-boxes (ENV-010M, MED-Associates) each placed in a sound-attenuated chamber. Each box is divided into two compartments by a partition with an opening. The position of the animal and crossings from one compartment to the other are detected by two photocells placed on either side of the dividing wall. Upon presentation of the conditioned stimuli (CS), tone and light, the animals have 10 s to cross to the other compartment of the shuttle-box in order to turn the CS off (end the trial) and avoid the appearance of the unconditioned stimulus (UCS). If the rat remains in the same compartment for more than 10 s, the UCS is presented as 0.5 mA scrambled foot-shocks until escape is performed or 10 s in maximal duration. The following behavioural variables are evaluated: avoidance (response to CS within 10 s); escape (response to CS+UCS); escape failures (failure to respond); intertrial crosses and locomotor activity. The rats are habituated to the shuttle-box 3 min before each test session. During training each test session consists of 30 trials with intertrial intervals varying randomly between 20 s and 30 s. Training is carried until the rats display an avoidance of 80% or more, on 3 consecutive days. A test is preceded by a pre-test the day before giving rise to a baseline value for each animal, thus the animals serve as their own control. Seven to eight rats are used at each dose level. A parallel control group receiving the vehicle of the test compound is also included.
Administration of compound.
Statistical analyses. The effects of compounds on avoidance and escape failure behaviours were statistically evaluated by means of a two-way repeated measures ANOVA followed by post hoc comparisons (Student-Newman-Keuls Method) when appropriate. P-levels <0.05 were considered statistically significant.

The test system of data set [5] is DA levels in the nucleus accumbens. Nature of the data set: Microdialysis: DA levels in the nucleus accumbens of freely moving rats. Type of data set: in vivo, rat. Particulars: no amphetamine provocation, data not shown.
The nature of data set [6]: Motility inhibition (sedative properties) without d-amphetamine, rat. Particulars: Wistar, in vivo, sc.
Data set [7] is described as follows: Inhibition of baseline motility in vehicle-pretreated, vehicle-challenged mice. Particulars: NMRI, mouse, in vivo.
Another data set is described as follows: in vivo. Particulars: Wistar, rat, sc.
In data set [8] the test system is baseline motility in mice. Nature of the data set: Inhibition of baseline motility in vehicle-pretreated, vehicle-challenged mice. The note with it: vehicle-pretreated, vehicle-challenged mice, compound s.c.
The subject of data set [9] is immobility in the mouse forced swim test. Nature of the data set: Mouse forced swim test. In kind it is in vivo. The note with it: 30 min before the test, mice, last 3 min of 6 min swim, vehicle = 100.
Setting [10] is: 2.5 mg/kg s.c. 30 min before the test.
Where [11] appears, read: 5 mg/kg s.c. 30 min before the test.

The term ED50 denotes the dose at which the effect has come halfway, by size or by number of responders. Turning to `Cc1cc(N2CCOCC2)cc(C)c1NC(=O)CC1CCCC1`, the ED50 was 2.6 mg/kg in data set [1] and 1.2 mg/kg in data set [3]. Besides, the “DA level in the nucleus accumbens, amphetamine + compound” value was 99 ± 4 % of baseline in data set [2] (time 0 min) and 95 ± 6 % of baseline in data set [2] (time −40 min). Besides, the “% inhibition of avoidance. Relative to baseline.” value in [4] (setting [10]) amounted to 5%; in data set [4] (setting [11]), 65%. In data set [4], the “Escape failures (effect on motor performance)” value is “None of the tested doses caused any incidences of escape failures”. Further, the “Effect on basal extracellular DA level in the nucleus accumbens” value in [5] was “merely provoked levels of DA were affected, but not basal levels of DA”. In addition, it took a dose of 5.3 mg/kg to reach the 50% effect level in data set [6] (ED50 at 2 h). Further, the median effective dose (ED50) at 30 min in [7] (subcutaneous) stood at 2.2 mg/kg.
Regarding `Cc1cc(N2CCOCC2)cc(C)c1NC(=O)CC(C)(C)C`, the ED50 in data set [1] turned out to be 2.1 mg/kg; in [3], 1.6 mg/kg. The “DA level in the nucleus accumbens, amphetamine + compound” value is recorded as 91 ± 4 % of baseline in data set [2] (time 0 min) and 100 ± 3 % of baseline in [2] (time −20 min). The “% inhibition of avoidance. Relative to baseline.” value is on record as 1% in [4] (setting [10]) and 71% in [4] (setting [11]). Further, in data set [4], the “Escape failures (effect on motor performance)” value is “None of the tested doses caused any incidences of escape failures”. The “Effect on basal extracellular DA level in the nucleus accumbens” value in [5] is “merely provoked levels of DA were affected, but not basal levels of DA”. In addition, the ED50 at 2 h in [6] amounted to 7.6 mg/kg. Further, the ED50 at 30 min in data set [7] (subcutaneous) is greater than 2.5 mg/kg.
Take `COc1cc(N2CCOCC2)cc(C)c1NC(=O)CC1CCCC1` [2-Cyclopentyl-N-(2-methoxy-6-methyl-4-morpholin-4-yl-phenyl)-acetamide]: the ED50 in data set [3] is 1.7 mg/kg. The ED50 at 30 min in data set [7] (subcutaneous) was found to be 3 mg/kg.
As to `Cc1nc(N2CCOCC2)nc(C)c1NC(=O)CC1CCCC1` [2-Cyclopentyl-N-(4,6-dimethyl-2-morpholin-4-yl-pyrimidin-5-yl)-acetamide], the ED50 in [3] was 0.9 mg/kg. Besides, the median effective dose (ED50) at 30 min in data set [7] (subcutaneous) was determined as 2.5 mg/kg.
With `CCCCCC(=O)Nc1c(F)cc(N2CCOCC2)cc1F` [Hexanoic acid (2,6-difluoro-4-morpholin-4-yl-phenyl)-amide], the 50% effective dose (ED50) in [3] is 2.4 mg/kg. For the same compound, the median effective dose (ED50) at 30 min in [7] (subcutaneous) was greater than 5 mg/kg.
Consider `[Li]` [Lithium-chloride], for which the ED50 in data set [1] is 12 mg/kg. Moreover, the ED50 at 2 h in the data set “in vivo” was greater than 40 mg/kg.
As to `Cc1cc(N2CCOCC2)nc(C)c1NC(=O)CC(C)(C)C` [N-(2,4-Dimethyl-6-morpholin-4-yl-pyridin-3-yl)-3,3-dimethyl-butyramide], the 50% effective dose (ED50) in [3] worked out at 1.4 mg/kg. The ED50 at 30 min in data set [7] (subcutaneous) was 3.1 mg/kg.
Turning to `CCC(=O)Nc1c(Br)cc(N2CCOCC2)cc1C(F)(F)F` [N-(2-Bromo-4-morpholin-4-yl-6-trifluoromethyl-phenyl)-propionamide], the ED50 in [3] turned out to be 3.1 mg/kg. For the same compound, the ED50 at 30 min in data set [7] (subcutaneous) worked out at 6 mg/kg.
For `Cc1nc(N2CCOCC2)nc(C)c1NC(=O)Cc1ccc(F)cc1` [N-(4,6-Dimethyl-2-morpholin-4-yl-pyrimidin-5-yl)-2-(4-fluoro-henyl)-acetamide], the “Inhibition of amphetamine sensitised response. ED50 (±S.D.)” value in data set [3] amounted to 0.4 mg/kg. Moreover, the “Inhibition of baseline motility. ED50 (±S.D.)” value in data set [8] amounted to 2.2 mg/kg.
In the case of `Cc1cc2c(s1)Nc1ccccc1N=C2N1CCN(C)CC1` [Olanzapine], the ED50 in data set [1] came out at 0.21 mg/kg. The Immobility in % in data set [9] (dose 0.31 mg/kg) is recorded as 96%; in data set [9] (dose 1.3 mg/kg) it was 95%.
With `CCOC(=O)Nc1ccc(NCc2c(C)cc(C)cc2C)cc1N` [[2-Amino-4-(2,4,6-trimethyl-benzylamino)-phenyl]-carbamic acid ethyl ester], the ED50 at 30 min in data set [7] stood at 4.3 mg/kg.
